Results as given in publication PMC6433685, “Histone deacetylase inhibitor LMK235 attenuates vascular constriction and aortic remodelling in hypertension” (Journal of Cellular and Molecular Medicine, 2019).

What was measured:
HDAC7 = biological target: T1, HDAC7 (Homo sapiens, UniProt Q8WUI4); assay: HDAC7 fluorogenic enzyme assay kit (BPS Bioscience), cell-free; type: biochemical; details: 0.001-10 μmol/L inhibitor
T1 construct: purchased BPS Bioscience 50067

HDAC3 = biological target: T2, HDAC3 (Homo sapiens, UniProt O15379); assay: HDAC3 fluorogenic enzyme assay kit (BPS Bioscience), cell-free; type: biochemical; details: 0.001-10 μmol/L inhibitor
T2 construct: purchased BPS Bioscience 50063

AT1 and ACE1 mRNA [1] = assay: AT1 and ACE1 mRNA (qRT-PCR) in aortas of SHRs; type: in vivo, rats
Experimental: (§1) For the essential hypertension animal experiment, SHRs were used. The SHR is the most used model animal model for hypertension and is generally regarded as an essential hypertension model.13 SHRs (6 weeks old, approximately 170 g) were purchased from Charles River (Yokohama, Japan). Rats were intraperitoneally administered LMK235 or vehicle every 3 days for 2 weeks (n = 4 per group).
(§2) Total RNA from aortic tissue was isolated with TRIzol reagent (Invitrogen Life Technologies), and 1 μg of RNA was used for the reverse transcription reaction with TOPscript RT DryMIX (Enzynomics, South Korea). Quantification of mRNA levels was performed with the SYBR Green PCR kit (Enzynomics, South Korea).

A10 cells [2] = assay: Western blot in A10 cells; type: cell-based, rat
Experimental: Cells were lysed in RIPA lysis buffer [150 mmol/L NaCl, 1% Triton X‐100, 1% sodium deoxycholate, 50 mmol/L Tris‐HCl pH 7.5, 2 mmol/L EDTA, 1 mmol/L PMSF, 1 mmol/L DTT, 1 mmol/L Na3VO4, and 5 mmol/L NaF] with protease inhibitor cocktail and sonicated. Approximately 30 μg of protein was separated by 10% sodium dodecyl sulphate‐polyacrylamide gel electrophoresis (SDS‐PAGE) and transferred to polyvinylidene difluoride (PVDF) membranes. After blocking with 5% skim milk for 1 hour, proteins were incubated with the primary antibodies overnight: anti‐cyclin D1 (1:1000), anti‐HDAC1 (1:1000), anti‐HDAC2 (1:1000), anti‐HDAC4 (1:1000) and anti‐HDAC5 (1:1000). As secondary antibodies, horse radish peroxidase‐linked antimouse or anti‐rabbit antibodies were used. Protein bands were visualized using Immobilon Western Detection Reagents (Millipore, Billerica, MA, USA). The Bio‐ID software was used to quantify protein expression (Vilber Lourmat, Eberhardzell, Germany).

[3] = tested on: angiotensin II‐infusion mice; assay: Aortic wall thickness (H&E) in angiotensin II-infusion mice; type: in vivo; details: Ang II-infusion mice; 3 mg/kg/day for 1 week
Experimental: (§3) All animal procedures were approved by the Animal Experimental Committee of Chonnam National University Medical School (CNU IACUC‐H‐2014‐47) and carried out in accordance with the Guide for the Care and Use of Laboratory Animals (US National Institutes of Health Publications, 8th edition, 2011). CD‐1 mice (8 weeks old, 30‐35 g) were used in this study. Hypertension was induced by angiotensin II (Ang II, 1.3 mg/kg/day) infusion using 14‐day micro‐osmotic pumps (Alzet, model 1002; infusion rate of 0.25 μL/h) or saline alone. Ang II osmotic pumps were implanted subcutaneously after the injection of ketamine (120 mg/kg) and xylazine (6.2 mg/kg). One week after Ang II infusion, mice were administered LMK235 (1 or 3 mg/kg/day) or vehicle (dimethylsulphoxide [DMSO]) via intraperitoneal injection for 7 days. Mice were divided into three groups (n = 10‐12 per group): sham + vehicle, Ang II + vehicle, and Ang II + LMK235.
The paraffin‐embedded tissues were cut into 3‐μm‐thick sections, deparaffinized with xylene and then rehydrated with graded alcohol. Haematoxylin and eosin (H&E) staining was performed as described, with slight modifications.15 The arterial wall thickness was measured using NIS Elements Software (Nikon, Japan).

HDAC4 = biological target: T3, HDAC4 (Homo sapiens, UniProt P56524); assay: HDAC4 fluorogenic enzyme assay kit (BPS Bioscience), cell-free; type: biochemical; details: 0.001-10 μmol/L inhibitor
T3 construct: purchased BPS Bioscience 50064

A10 cells [4] = assay: MTT cell viability assay in A10 cells; type: cell-based, rat; details: up to 1000 nmol/L, 24 hours
Experimental: (§4) A10 vascular smooth muscle cells (VSMCs) were incubated with Dulbecco's modified Eagle medium (DMEM) with 4500 mg/L glucose containing 10% foetal bovine serum (FBS). Passages were carried out every 2 or 3 days. VSMCs were maintained in DMEM in the presence of 10% FBS with low glucose (1000 mg/L). Human umbilical vein endothelial cells (HUVECs) were obtained from Gibco (Waltham, MA, USA). HUVECs were grown in an endothelial cell basal medium (EBM) with EGM‐2 bullet kit (Lonza, Walkersville, MD) and maintained at 37°C under 5% CO2. Cells were cultured for 5‐7 passages.
Cell viability was tested by the MTT [3‐(4,5‐dimethylthiazol‐2‐yl)‐2,5‐diphenyl tetrazolium bromide] assay. A10 cells were seed into 24‐well culture dishes and serum‐starved overnight. Cells were treated with LMK235 or vehicle for 24 hours at the indicated concentrations. MTT reagent was added to the medium for 2 hours and then dissolved in DMSO, and the absorbance was measured at 570 nm. For assessing cell proliferation, A10 cells were transfected with pCMV‐SPORT6‐CaMKIIα in a dose‐dependent manner. The MTT assay was performed as described above.

HDAC2 = biological target: T4, HDAC2 (Homo sapiens, UniProt Q92769); assay: HDAC2 fluorogenic enzyme assay kit (BPS Bioscience), cell-free; type: biochemical; details: 0.001-10 μmol/L inhibitor
T4 construct: purchased BPS Bioscience 50062

AT1 and ACE1 mRNA [5] = assay: AT1 and ACE1 mRNA (qRT-PCR) in aortas of angiotensin II-infusion mice; type: in vivo
Experimental: as §3, §2

[6] = tested on: spontaneously hypertensive rats (SHRs); assay: Systolic BP (tail-cuff) in spontaneously hypertensive rats; type: in vivo
Experimental: as §1
Systolic BP was measured by the tail‐cuff method (Visitech Systems, BP‐2000). Animals (mice and rats) were trained to allow for the measuring of BP before administration of the drug. Animals were trained to enter the holder at the same time more than three times a week to measure BP. For angiotensin II‐mice, systolic BP was measured when the mice were awake the day before they are killed. For SHRs, systolic BP was measured daily for 2 weeks.

HDAC9 = biological target: T5, HDAC9 (Homo sapiens, UniProt Q9UKV0); assay: HDAC9 fluorogenic enzyme assay kit (BPS Bioscience), cell-free; type: biochemical; details: 0.001-10 μmol/L inhibitor
T5 construct: purchased BPS Bioscience 50069

HUVECs = assay: Nitric oxide production in HUVECs (DAF-FM DA fluorescence); type: cell-based, Human; details: 1 μmol/L, 24 h
Experimental: as §4
We used a nitric oxide‐sensitive fluorescence probe, 4‐amino‐5‐methylamino‐2′,7′‐difluorescein diacetate (DAF‐FM DA, Cayman), for nitric oxide detection. HUVECs were seeded on coverslips in 12‐well plates (1.5 × 10^5/mL). Cells, serum‐starved with EBM for 16 hour, were treated with LMK235 (1 μmol/L) or L‐NAME (250 μmol/L) for 24 hour and incubated with DAF‐FM DA (2.5 μmol/L) for 45 minutes. Next, the cells were fixed with 70% ethanol for 45 minutes and mounted using Prolog Gold antifade reagent and DAPI (Invitrogen, USA).

T2 sequence (O15379 whole entry): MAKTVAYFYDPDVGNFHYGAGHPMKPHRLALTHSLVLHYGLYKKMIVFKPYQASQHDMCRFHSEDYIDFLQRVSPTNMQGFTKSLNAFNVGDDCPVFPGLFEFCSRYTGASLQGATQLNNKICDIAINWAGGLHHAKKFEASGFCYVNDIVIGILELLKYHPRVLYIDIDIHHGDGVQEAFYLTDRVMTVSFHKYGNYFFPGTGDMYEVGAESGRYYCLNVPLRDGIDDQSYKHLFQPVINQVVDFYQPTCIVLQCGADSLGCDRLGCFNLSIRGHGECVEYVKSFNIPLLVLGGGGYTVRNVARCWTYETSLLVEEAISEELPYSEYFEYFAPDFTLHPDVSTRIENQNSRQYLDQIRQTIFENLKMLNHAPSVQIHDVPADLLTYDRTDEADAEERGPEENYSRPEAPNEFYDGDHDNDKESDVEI
T2 sequence (Q9Y618 395-489 partner limits assumed): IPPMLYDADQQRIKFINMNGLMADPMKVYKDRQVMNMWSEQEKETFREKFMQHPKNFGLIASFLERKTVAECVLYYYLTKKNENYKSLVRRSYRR
T4 sequence (Q92769 whole entry): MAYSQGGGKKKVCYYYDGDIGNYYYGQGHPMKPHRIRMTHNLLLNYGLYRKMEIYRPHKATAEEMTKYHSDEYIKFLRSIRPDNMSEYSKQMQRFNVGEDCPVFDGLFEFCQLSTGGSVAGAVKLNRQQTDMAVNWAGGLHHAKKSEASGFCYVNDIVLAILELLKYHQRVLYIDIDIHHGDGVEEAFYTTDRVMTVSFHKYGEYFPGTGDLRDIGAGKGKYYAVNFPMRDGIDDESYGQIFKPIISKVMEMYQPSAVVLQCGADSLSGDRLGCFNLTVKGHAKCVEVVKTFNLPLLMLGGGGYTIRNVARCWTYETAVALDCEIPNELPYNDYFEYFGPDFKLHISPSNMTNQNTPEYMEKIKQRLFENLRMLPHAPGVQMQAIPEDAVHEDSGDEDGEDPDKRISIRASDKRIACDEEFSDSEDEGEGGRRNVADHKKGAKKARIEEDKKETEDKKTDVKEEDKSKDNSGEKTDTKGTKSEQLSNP
T1 sequence (Q8WUI4 whole entry): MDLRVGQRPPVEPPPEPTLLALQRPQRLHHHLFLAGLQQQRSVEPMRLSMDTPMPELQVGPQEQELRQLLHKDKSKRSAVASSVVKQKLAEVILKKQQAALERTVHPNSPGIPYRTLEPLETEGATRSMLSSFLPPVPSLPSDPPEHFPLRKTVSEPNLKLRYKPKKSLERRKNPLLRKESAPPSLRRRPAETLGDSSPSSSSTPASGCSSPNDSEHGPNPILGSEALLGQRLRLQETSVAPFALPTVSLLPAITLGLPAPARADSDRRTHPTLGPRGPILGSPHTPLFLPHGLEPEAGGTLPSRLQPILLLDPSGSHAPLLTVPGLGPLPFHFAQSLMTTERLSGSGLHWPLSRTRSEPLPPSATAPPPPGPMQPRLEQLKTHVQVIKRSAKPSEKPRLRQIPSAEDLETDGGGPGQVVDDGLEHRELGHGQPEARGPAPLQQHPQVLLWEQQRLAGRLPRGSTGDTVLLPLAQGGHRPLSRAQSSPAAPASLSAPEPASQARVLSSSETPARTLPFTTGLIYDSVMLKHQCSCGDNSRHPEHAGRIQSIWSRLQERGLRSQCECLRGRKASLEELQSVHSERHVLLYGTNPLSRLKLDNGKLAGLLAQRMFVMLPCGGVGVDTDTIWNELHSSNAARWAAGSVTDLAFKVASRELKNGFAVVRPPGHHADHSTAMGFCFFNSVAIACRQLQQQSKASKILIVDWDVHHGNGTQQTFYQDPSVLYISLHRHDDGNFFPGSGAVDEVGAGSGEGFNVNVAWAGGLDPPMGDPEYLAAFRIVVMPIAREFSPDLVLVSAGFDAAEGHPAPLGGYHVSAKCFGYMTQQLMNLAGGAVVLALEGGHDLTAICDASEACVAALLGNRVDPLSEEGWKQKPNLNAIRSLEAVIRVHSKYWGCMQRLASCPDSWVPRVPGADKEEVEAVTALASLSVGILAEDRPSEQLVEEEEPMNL
T3 sequence (P56524 whole entry): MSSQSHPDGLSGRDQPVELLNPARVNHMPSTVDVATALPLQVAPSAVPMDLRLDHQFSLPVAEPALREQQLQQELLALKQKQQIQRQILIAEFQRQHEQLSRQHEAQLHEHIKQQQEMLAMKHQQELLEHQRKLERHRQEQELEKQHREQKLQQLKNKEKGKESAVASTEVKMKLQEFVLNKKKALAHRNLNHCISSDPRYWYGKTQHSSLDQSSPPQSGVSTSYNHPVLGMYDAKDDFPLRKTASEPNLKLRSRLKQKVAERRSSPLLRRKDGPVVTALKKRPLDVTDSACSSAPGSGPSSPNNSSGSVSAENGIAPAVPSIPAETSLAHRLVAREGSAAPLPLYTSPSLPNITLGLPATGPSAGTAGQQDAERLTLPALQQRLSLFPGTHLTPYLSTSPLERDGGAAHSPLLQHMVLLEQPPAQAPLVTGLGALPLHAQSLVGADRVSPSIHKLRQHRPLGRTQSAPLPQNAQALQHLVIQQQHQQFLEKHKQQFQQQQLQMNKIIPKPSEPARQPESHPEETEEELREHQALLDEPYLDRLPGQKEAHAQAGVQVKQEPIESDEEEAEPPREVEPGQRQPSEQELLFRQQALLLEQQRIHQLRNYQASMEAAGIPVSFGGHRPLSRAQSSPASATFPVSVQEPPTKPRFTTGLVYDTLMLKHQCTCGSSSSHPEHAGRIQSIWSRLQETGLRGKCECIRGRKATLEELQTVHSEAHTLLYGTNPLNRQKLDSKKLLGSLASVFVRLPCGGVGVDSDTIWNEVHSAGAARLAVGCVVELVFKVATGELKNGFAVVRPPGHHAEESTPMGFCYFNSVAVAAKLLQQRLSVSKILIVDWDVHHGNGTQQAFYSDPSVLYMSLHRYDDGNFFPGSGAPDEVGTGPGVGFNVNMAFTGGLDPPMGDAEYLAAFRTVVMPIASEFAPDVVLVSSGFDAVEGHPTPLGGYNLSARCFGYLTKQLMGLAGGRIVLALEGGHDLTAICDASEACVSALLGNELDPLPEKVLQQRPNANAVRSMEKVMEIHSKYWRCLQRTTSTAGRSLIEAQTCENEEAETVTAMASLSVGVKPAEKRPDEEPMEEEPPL
T5 sequence (Q9UKV0 whole entry): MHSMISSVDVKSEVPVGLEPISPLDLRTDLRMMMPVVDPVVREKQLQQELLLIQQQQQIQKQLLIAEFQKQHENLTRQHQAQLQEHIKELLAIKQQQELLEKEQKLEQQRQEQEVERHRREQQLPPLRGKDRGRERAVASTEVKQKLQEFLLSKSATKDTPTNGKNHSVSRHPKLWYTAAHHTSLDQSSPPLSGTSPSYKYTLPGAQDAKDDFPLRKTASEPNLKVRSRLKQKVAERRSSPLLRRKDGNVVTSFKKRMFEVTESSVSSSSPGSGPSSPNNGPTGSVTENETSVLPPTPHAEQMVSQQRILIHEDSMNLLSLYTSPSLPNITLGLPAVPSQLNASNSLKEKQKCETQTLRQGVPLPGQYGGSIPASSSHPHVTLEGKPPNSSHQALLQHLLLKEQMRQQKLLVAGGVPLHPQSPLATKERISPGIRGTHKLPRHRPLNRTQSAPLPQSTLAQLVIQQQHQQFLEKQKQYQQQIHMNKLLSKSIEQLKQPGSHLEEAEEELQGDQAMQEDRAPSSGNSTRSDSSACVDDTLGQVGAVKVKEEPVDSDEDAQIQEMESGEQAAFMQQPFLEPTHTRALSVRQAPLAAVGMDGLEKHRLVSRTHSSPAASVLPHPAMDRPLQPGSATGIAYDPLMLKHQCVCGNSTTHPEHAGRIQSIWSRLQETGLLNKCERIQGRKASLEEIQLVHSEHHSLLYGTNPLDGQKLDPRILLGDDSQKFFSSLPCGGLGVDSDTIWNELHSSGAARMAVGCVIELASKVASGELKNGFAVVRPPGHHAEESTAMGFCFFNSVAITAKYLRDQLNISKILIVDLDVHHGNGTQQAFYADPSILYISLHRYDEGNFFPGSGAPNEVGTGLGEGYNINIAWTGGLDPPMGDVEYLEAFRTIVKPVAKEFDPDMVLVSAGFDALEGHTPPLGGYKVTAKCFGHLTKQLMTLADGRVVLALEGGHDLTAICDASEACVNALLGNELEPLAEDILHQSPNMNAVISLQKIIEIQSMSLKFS

Cc1cc(C)cc(C(=O)NOCCCCCC(=O)NO)c1 [LMK235]
IC50 (HDAC7): > 20000 nM
IC50 (HDAC3): 37 nM
AT1 mRNA levels in aorta (AT1 and ACE1 mRNA [1]): not affected
protein expression of class I and IIa/b HDAC (A10 cells [2]; A10 cells without CaMKIIα transfection, 18 h): reduced protein expression
CaMKIIα-induced cyclin D1 protein (A10 cells [2]; CaMKIIα-transfected A10 cells): reduced
HDAC4 and HDAC5 proteins (A10 cells [2]; CaMKIIα-transfected A10 cells): significantly reduced
protein expression of HDAC1 and HDAC2 (A10 cells [2]; CaMKIIα-transfected A10 cells, 18 h): significantly reduced
aortic wall thickness [3]: completely inhibited the increased aortic wall thickness
IC50 (HDAC4): > 20000 nM
cell viability (MTT) (A10 cells [4]): not affected
IC50 (HDAC2): 55 nM
AT1 transcript levels in aorta (AT1 and ACE1 mRNA [5]; Ang II-infusion mice): not reduced
aortic ACE1 or AT1 expression (AT1 and ACE1 mRNA [5]; either hypertension model (Ang II mice and SHRs)): did not affect
hypertension lowering effect ([6]; 1 mg/kg/day (data not shown)): did not exhibit a hypertension lowering effect
duration of BP lowering effect ([6]; 3 mg/kg i.p. every 3 days): 2 days
systolic BP ([6]; 3 mg/kg i.p. every 3 days, 2 days after treatment): significantly lowered
systolic BP ([6]; 3 mg/kg i.p. every 3 days, 3 days after administration): restored to a comparable level
IC50 (HDAC9): > 20000 nM
nitric oxide production (HUVECs): increased nitric oxide production
